Data reported in PMC5034043 (The Journal of Biological Chemistry, 2016).
Where two headings read alike, the source gives them in different places.

Tested on: T1, synaptosomal proteome
T1 construct: from tissue; host or cells: brain synaptosomes of male C57/B6 mice
Type: binding, mouse
Method: Synaptosomes were resuspended to 1 mg of protein/ml in HEPES buffer medium (in mM: 140 NaCl, 5 KCl, 5 NaHCO3, 1.2 NaH2PO4, 1 MgCl2, 10 glucose, and 10 HEPES (pH 7.4)). […] The samples were allowed to equilibrate for 5 min before being transferred to a parafilm-sealed 1-mm path length quartz cuvette. The sample was then irradiated for 20 min at a peak bandwidth of 350 nm (Rayonet RPR-3500 lamp) ∼6 cm from the light source. Non-irradiated samples were left in the dark at ambient temperature (22–25 °C) for 20 min. All remaining procedures were conducted with restricted light exposure.
To 750 μg of photolabeled or control synaptosome samples, 40 μl of 10% SDS and 2 μl of 5 mM DTT in water were added. Samples were then vortexed, heated for 10 min at 65 °C, and then briefly cooled. Final concentrations of 150 μM azide-biotin (Click Chemistry Tools), 2 mM tris(3-hydroxypropyltriazolylmethyl)amine (Sigma), 1 mM ascorbic acid (Sigma), and 1 mM CuSO4·5H2O (Sigma) were added to each sample and vortexed vigorously. The samples were left in the dark at ambient temperature (22–25 °C) for 1 h with mild agitation. Directly to each sample 4× volume chilled methanol, 1.5× chilled chloroform, and 3× chilled double distilled H2O were added. Samples were vortexed vigorously and centrifuged at 1,400 × g for 30 min at 4 °C. Both liquid layers were carefully removed, and the protein pellet was washed with 2 ml of 1:1 (v/v) chilled methanol/chloroform. Samples were centrifuged at 3,500 × g for 30 min at 4 °C. Protein pellets were briefly air-dried before further processing.
750 μg of biotin-conjugated protein sample was resuspended in 500 μl of 25 mM NH4HCO3 and 6 M urea in water. Next, 150 μl of 5% Triton X-100 in water, 50 μl of 10% SDS in water, and 1.5 μl of 0.5 M DTT were added. The samples were heated for 15 min at 65 °C. After briefly cooling, 14 μl of 0.5 M iodoacetamide in water was added, and the sample was left in the dark for 45 min. […] The supernatant was diluted to 4 ml with PBS, and 2 ml of PBS containing 100 μl of 50% streptavidin-agarose resin (Thermo Scientific) was added. Biotinylated proteins within the sample were captured over resin overnight at 4 °C with mild agitation. The resin was first washed with 6 ml of 1% SDS in PBS, and then 7 ml of 0.1 M urea in PBS followed by 10 ml of PBS. The resin underwent a final wash with 0.9 ml of 50 mM Tris-HCl and 1 mM CaCl2 in water (pH 8.0) and then resuspended in 200 μl of 50 mM Tris-HCl, 1 mM CaCl2 in water (pH 8.0), and 2 μg of porcine sequencing grade trypsin (Promega). Samples were digested overnight at 37 °C. Samples were then centrifuged at 2,000 × g for 4 min, and digest supernatant was decanted. Beads were washed in 100 μl of PBS centrifuged at 5,200 × g for 5 min, and the wash was combined with the digest supernatant. To the combined sample, trifluoroacetic acid (TFA) was added to 0.4% (v/v) or until pH <2. The sample was desalted with Oasis C18 10-mg columns (Waters) as described previously ([66]). The eluted sample was dried by speed vac and resuspended in 0.1 M HEPES buffer (pH 8.5). […] Appropriate corresponding TMTsixplex^TM-labeled samples were pooled and dried by speed vac. The combined samples were resuspended in 0.5% acetic acid in water and pH-corrected with acetic acid until pH was <2. 40 μg of protein was desalted with C18 stage tips prepared in-house and dried by speed vac.
Samples were resuspended in 10 mM KH2PO4 (pH 2.6), 30% acetonitrile (v/v) in water, and fractionated by off-line strong cation exchange chromatography prior to mass spectrometry (MS) analysis similar to as reported previously ([66]). The full synaptosome proteome control was prepared similarly without TMTsixplex^TM labeling.
All TMT samples were analyzed with three-stage mass spectrometry (MS3) TMTsixplex^TM quantification workflow as described previously ([34]).

[1] = protein P27671 Ras-specific guanine nucleotide-releasing factor 1 (Rasgrf1)
[2] = protein P35762 CD81 antigen (Cd81)
[3] = protein P46096 Synaptotagmin-1 (Syt1)
[4] = protein P50544 Very long-chain specific acyl-CoA dehydrogenase, mitochondrial (Acadvl)
[5] = protein P50571 Gamma-aminobutyric acid receptor subunit beta-1 (Gabrb1)
[6] = protein P56564 Excitatory amino acid transporter 1 (Slc1a3)
[7] = protein P60879 Synaptosomal-associated protein 25 (Snap25)
[8] = protein P61264 Syntaxin-1B (Stx1b)
[9] = protein P62204 Calmodulin (Calm1)
[10] = protein P63328 Serine/threonine-protein phosphatase 2B catalytic subunit alpha isoform (Ppp3ca)
[11] = protein Q2TPA8 Hydroxysteroid dehydrogenase-like protein 2 (Hsdl2)
[12] = protein Q3TXX4 Vesicular glutamate transporter 1 (Slc17a7)
[13] = protein Q3UN02 Lysocardiolipin acyltransferase 1 (Lclat1)
[14] = protein Q4W8U9 Scg2 protein (Scg2)
[15] = protein Q5U458 DnaJ homolog subfamily C member 11 (Dnajc11)
[16] = protein Q7TME0 Lipid phosphate phosphatase-related protein type 4 (Lppr4)
[17] = protein Q7TQ95 Protein lunapark (Lnp)
[18] = protein Q8BFT9 Synaptic vesicle 2-related protein (Svop)
[19] = protein Q8BG39 Synaptic vesicle glycoprotein 2B (Sv2b)
[20] = protein Q8BH59 Calcium-binding mitochondrial carrier protein Aralar1 (Slc25a12)
[21] = protein Q8BH66 Atlastin-1 (Atl1)
[22] = protein Q8BUN9 Protein Slc24a2 (Slc24a2)
[23] = protein Q8BW75 Amine oxidase [flavin-containing] B (Maob)
[24] = protein Q8CGK7 Guanine nucleotide-binding protein G(olf) subunit alpha (Gnal)
[25] = protein Q8K0T0 Reticulon-1 (Rtn1)
[26] = protein Q9CPQ3 Mitochondrial import receptor subunit TOM22 homolog (Tomm22)
[27] = protein Q9CWK8 Sorting nexin-2 (Snx2)
[28] = protein Q9D6J5 NADH dehydrogenase [ubiquinone] 1 beta subcomplex subunit 8, mitochondrial (Ndufb8)
[29] = protein Q9D328 Transmembrane protein 35 (Tmem35)
[30] = protein Q9ERS2 NADH dehydrogenase [ubiquinone] 1 alpha subcomplex subunit 13 (Ndufa13)
[31] = protein Q9ESW4 Acylglycerol kinase, mitochondrial (Agk)
[32] = protein Q9QXV0 ProSAAS (Pcsk1n)
[33] = protein Q9QZM0 Ubiquilin-2 (Ubqln2)
[34] = protein Q9R0K7 Plasma membrane calcium-transporting ATPase 2 (Atp2b2)
[35] = protein Q9Z0V2 Potassium voltage-gated channel subfamily D member 2 (Kcnd2)
[36] = protein Q67BT3 Solute carrier family 13 member 5 (Slc13a5)
[37] = protein Q80X80 C2 domain-containing protein 2-like (C2cd2l)
[38] = protein Q91YQ5 Dolichyl-diphosphooligosaccharide--protein glycosyltransferase subunit 1 (Rpn1)
[39] = protein Q99PU5 Long-chain-fatty-acid--CoA ligase ACSBG1 (Acsbg1)

For `CC(C)c1cccc(C(C)C)c1O` [propofol, 2,6-diisopropylphenol, reference compound], the “% propofol protection” value [1] was 54%, the “Log2( Mean 'UV/ UV+propofol')” value [1] was 1.10 and the “% propofol protection” value (protein P35564 Calnexin (Canx)) was 54%. For the same compound, the “Log2( Mean 'UV/ UV+propofol')” value (protein P35564 Calnexin (Canx)) was 1.07, the “% propofol protection” value [2] was 58% and the “Log2( Mean 'UV/ UV+propofol')” value [2] was 1.14. For the same compound, the “% propofol protection” value [3] was 50%, the “Log2( Mean 'UV/ UV+propofol')” value [3] was 0.95 and the “% propofol protection” value [4] was 51%. The “Log2( Mean 'UV/ UV+propofol')” value [4] was 0.99, the “% propofol protection” value [5] was 58% and the “Log2( Mean 'UV/ UV+propofol')” value [5] was 1.06. The “Log2( Mean 'UV/ UV+propofol')” value (protein P56480 ATP synthase subunit beta, mitochondrial (Atp5b)) was 1.15, the “% propofol protection” value [6] was 56% and the “Log2( Mean 'UV/ UV+propofol')” value [6] was 1.10. The “% propofol protection” value [7] was 57%, the “Log2( Mean 'UV/ UV+propofol')” value [7] was 1.12 and the “% propofol protection” value [8] was 57%. For the same compound, the “Log2( Mean 'UV/ UV+propofol')” value [8] was 1.14, the “% propofol protection” value [9] was 53% and the “Log2( Mean 'UV/ UV+propofol')” value [9] was 0.97. The “% propofol protection” value [10] was 52%, the “Log2( Mean 'UV/ UV+propofol')” value [10] was 0.93 and the “% propofol protection” value [11] was 53%. The “Log2( Mean 'UV/ UV+propofol')” value [11] was 1.03, the “% propofol protection” value [12] was 57% and the “Log2( Mean 'UV/ UV+propofol')” value [12] was 1.15. For the same compound, the “% propofol protection” value [13] was 52%, the “Log2( Mean 'UV/ UV+propofol')” value [13] was 1.03 and the “% propofol protection” value [14] was 53%. The “Log2( Mean 'UV/ UV+propofol')” value [14] was 0.99, the “Log2( Mean 'UV/ UV+propofol')” value (protein Q5IRJ6 Zinc transporter 9 (Slc30a9)) was 1.17 and the “% propofol protection” value [15] was 53%. The “Log2( Mean 'UV/ UV+propofol')” value [15] was 0.96, the “% propofol protection” value [16] was 57% and the “Log2( Mean 'UV/ UV+propofol')” value [16] was 1.08. For the same compound, the “% propofol protection” value [17] was 58%, the “Log2( Mean 'UV/ UV+propofol')” value [17] was 1.23 and the “% propofol protection” value [18] was 53%. For the same compound, the “Log2( Mean 'UV/ UV+propofol')” value [18] was 0.94, the “% propofol protection” value [19] was 50% and the “Log2( Mean 'UV/ UV+propofol')” value [19] was 0.94. The “Log2( Mean 'UV/ UV+propofol')” value (protein Q8BG51 Mitochondrial Rho GTPase 1 (Rhot1)) was 1.18, the “Log2( Mean 'UV/ UV+propofol')” value (protein Q8BH24 Transmembrane 9 superfamily member 4 (Tm9sf4)) was 1.11 and the “% propofol protection” value [20] was 50%. For the same compound, the “Log2( Mean 'UV/ UV+propofol')” value [20] was 0.98, the “% propofol protection” value [21] was 57% and the “Log2( Mean 'UV/ UV+propofol')” value [21] was 1.14. For the same compound, the “% propofol protection” value [22] was 52%, the “Log2( Mean 'UV/ UV+propofol')” value [22] was 1.03 and the “% propofol protection” value [23] was 56%. The “Log2( Mean 'UV/ UV+propofol')” value [23] was 1.10, the “% propofol protection” value [24] was 55% and the “Log2( Mean 'UV/ UV+propofol')” value [24] was 1.05. The “% propofol protection” value [25] was 57%, the “Log2( Mean 'UV/ UV+propofol')” value [25] was 1.05 and the “Log2( Mean 'UV/ UV+propofol')” value (protein Q8VCX5 Calcium uptake protein 1, mitochondrial (Micu1)) was 1.09. The “% propofol protection” value [26] was 57%, the “Log2( Mean 'UV/ UV+propofol')” value [26] was 1.05 and the “% propofol protection” value [27] was 51%. For the same compound, the “Log2( Mean 'UV/ UV+propofol')” value [27] was 1.00, the “% propofol protection” value [28] was 57% and the “Log2( Mean 'UV/ UV+propofol')” value [28] was 1.23. For the same compound, the “% propofol protection” value [29] was 55%, the “Log2( Mean 'UV/ UV+propofol')” value [29] was 1.10 and the “% propofol protection” value [30] was 53%. For the same compound, the “Log2( Mean 'UV/ UV+propofol')” value [30] was 0.98, the “% propofol protection” value [31] was 58% and the “Log2( Mean 'UV/ UV+propofol')” value [31] was 1.18. For the same compound, the “Log2( Mean 'UV/ UV+propofol')” value (protein Q9JIG8 PRA1 family protein 2 (Praf2)) was 1.23, the “% propofol protection” value [32] was 57% and the “Log2( Mean 'UV/ UV+propofol')” value [32] was 1.11. For the same compound, the “% propofol protection” value [33] was 51%, the “Log2( Mean 'UV/ UV+propofol')” value [33] was 0.96 and the “% propofol protection” value [34] was 51%. The “Log2( Mean 'UV/ UV+propofol')” value [34] was 1.00, the “Log2( Mean 'UV/ UV+propofol')” value (protein Q9WU79 Proline dehydrogenase 1, mitochondrial (Prodh)) was 1.11 and the “% propofol protection” value [35] was 52%. The “Log2( Mean 'UV/ UV+propofol')” value [35] was 1.01, the “% propofol protection” value [36] was 57% and the “Log2( Mean 'UV/ UV+propofol')” value [36] was 1.13. The “% propofol protection” value [37] was 53%, the “Log2( Mean 'UV/ UV+propofol')” value [37] was 1.04 and the “% propofol protection” value [38] was 55%. For the same compound, the “Log2( Mean 'UV/ UV+propofol')” value [38] was 1.11, the “% propofol protection” value [39] was 58% and the “Log2( Mean 'UV/ UV+propofol')” value [39] was 1.12. The “Log2( Mean 'UV/ UV+propofol')” value (protein Q925I1 ATPase family AAA domain-containing protein 3 (Atad3)) was 1.17.
